This is an account of results in paper PMC12526275, “hERG Channel Blockade and Antagonistic Interactions of Three Steroidal Alkaloids from Fritillaria Species” (Molecules, 2025).

The structures appear in SMILES notation.

Holding throughout (format): cell-based
Series [1] addresses T1, hERG channel (human Ether-a-go-go-Related Gene, Kv11.1) (Homo sapiens, UniProt Q12809).
T1 construct: gene KCNH2
Description: manual whole-cell patch clamp, hERG tail currents in stably expressing HEK293 cells. (In general: In patch-clamp work, channel activity is measured electrically.)

Series [2] has as its target T1, hERG channel (human Ether-a-go-go-Related Gene, Kv11.1). Description: manual whole-cell patch clamp, hERG tail currents in stably expressing HEK293 cells; IC50 extrapolated (maximum tested […]).
Series [3] addresses T2, hERG channel mutant S631A (Homo sapiens, UniProt Q12809, S631A).
T2 construct: gene KCNH2
Description: whole-cell patch clamp, transiently transfected HEK293 cells; inhibition at […].

T1 sequence (Q12809 whole entry): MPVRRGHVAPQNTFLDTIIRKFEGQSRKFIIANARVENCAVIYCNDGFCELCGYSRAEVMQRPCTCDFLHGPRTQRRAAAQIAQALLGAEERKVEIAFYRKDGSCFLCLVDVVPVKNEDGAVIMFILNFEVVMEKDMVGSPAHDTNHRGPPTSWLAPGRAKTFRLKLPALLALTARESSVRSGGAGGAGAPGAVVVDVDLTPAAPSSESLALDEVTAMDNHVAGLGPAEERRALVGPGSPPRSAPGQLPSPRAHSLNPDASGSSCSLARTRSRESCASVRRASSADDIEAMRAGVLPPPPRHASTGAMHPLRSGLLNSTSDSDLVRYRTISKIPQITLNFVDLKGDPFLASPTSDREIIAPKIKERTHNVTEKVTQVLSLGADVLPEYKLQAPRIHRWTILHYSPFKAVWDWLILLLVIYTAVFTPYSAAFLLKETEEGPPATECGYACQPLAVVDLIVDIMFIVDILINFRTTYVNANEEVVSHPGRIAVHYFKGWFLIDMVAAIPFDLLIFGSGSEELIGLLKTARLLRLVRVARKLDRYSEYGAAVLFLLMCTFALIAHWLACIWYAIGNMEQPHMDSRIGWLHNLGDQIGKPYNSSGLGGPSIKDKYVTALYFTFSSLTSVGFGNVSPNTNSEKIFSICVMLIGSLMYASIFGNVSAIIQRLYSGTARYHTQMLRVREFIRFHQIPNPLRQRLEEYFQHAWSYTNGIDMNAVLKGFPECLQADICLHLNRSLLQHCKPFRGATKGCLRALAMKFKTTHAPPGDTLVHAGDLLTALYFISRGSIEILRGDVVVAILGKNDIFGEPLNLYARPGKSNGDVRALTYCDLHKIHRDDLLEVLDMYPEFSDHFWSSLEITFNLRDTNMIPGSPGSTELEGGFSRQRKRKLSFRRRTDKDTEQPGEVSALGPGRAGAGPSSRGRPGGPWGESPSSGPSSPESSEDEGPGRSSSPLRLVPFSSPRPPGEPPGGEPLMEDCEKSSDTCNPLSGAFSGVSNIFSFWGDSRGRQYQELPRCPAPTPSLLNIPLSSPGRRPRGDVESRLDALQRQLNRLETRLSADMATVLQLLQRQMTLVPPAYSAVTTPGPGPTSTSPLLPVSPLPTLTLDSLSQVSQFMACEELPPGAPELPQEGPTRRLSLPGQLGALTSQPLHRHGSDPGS
T2 sequence (Q12809 whole entry S631A): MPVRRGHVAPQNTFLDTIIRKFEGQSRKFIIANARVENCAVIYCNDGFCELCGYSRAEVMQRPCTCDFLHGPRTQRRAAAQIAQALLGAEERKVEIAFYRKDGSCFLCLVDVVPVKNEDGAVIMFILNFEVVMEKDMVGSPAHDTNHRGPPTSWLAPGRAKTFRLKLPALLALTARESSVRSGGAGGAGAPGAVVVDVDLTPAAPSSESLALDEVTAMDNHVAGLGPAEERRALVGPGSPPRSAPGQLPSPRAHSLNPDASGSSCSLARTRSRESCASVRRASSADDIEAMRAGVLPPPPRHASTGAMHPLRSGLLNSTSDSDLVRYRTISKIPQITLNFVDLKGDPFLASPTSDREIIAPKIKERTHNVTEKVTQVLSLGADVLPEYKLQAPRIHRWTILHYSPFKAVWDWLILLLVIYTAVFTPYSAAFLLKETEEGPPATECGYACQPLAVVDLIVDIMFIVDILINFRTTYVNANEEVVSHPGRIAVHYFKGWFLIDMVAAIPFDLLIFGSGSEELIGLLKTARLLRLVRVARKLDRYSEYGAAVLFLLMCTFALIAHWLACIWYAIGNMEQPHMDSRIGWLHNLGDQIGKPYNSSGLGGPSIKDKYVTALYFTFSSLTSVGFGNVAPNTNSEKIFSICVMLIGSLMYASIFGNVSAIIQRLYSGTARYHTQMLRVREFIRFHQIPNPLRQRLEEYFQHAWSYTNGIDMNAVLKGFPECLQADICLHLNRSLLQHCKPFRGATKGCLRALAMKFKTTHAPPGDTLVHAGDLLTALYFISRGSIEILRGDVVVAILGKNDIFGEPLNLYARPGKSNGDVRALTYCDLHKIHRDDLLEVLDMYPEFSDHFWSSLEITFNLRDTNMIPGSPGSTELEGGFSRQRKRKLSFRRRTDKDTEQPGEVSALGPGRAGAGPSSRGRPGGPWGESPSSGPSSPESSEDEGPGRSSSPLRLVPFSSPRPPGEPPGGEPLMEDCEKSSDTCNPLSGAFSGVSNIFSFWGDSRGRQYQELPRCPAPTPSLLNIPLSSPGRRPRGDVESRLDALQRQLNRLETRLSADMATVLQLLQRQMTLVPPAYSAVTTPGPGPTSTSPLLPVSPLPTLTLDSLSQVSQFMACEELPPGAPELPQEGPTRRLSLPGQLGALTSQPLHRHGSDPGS

The IC50 is the concentration at which inhibition is half-maximal. On to `C[C@H]1CC[C@@H]2N(C1)C[C@H]1[C@@H]3C[C@H]4[C@@H](C[C@H](O)[C@H]5C[C@@H](O)CC[C@@]54C)[C@@H]3CC[C@@H]1[C@]2(C)O` [peimine], for which the 50% inhibitory concentration (IC50) in series [1] turned out to be 26.1 ± 3.5 µM.

For the compound `C[C@H]1CC[C@@H]2N(C1)C[C@H]1[C@@H]3C[C@H]4[C@@H](CC(=O)[C@H]5C[C@@H](O)CC[C@@]54C)[C@@H]3CC[C@H]1[C@]2(C)O` [sipeimine], the 50% inhibitory concentration (IC50) in series [2] was ~47.6 µM.

A word on the inhibition: it is the percentage by which the read-out fell short of the control. Higher therefore signals a strong effect. On to `C[C@H]1CC[C@@H]2N(C1)C[C@H]1[C@@H]3C[C@H]4[C@@H](CC(=O)[C@H]5C[C@@H](O)CC[C@@]54C)[C@@H]3CC[C@@H]1[C@]2(C)O` [peiminine], for which at 100 µM the inhibition in series [3] was 12.3 ± 1.4%. The compound further yielded an IC50 in series [1] of 36.8 ± 2.5 µM.
